Results published in ChEMBL document CHEMBL1201862, “PubChem BioAssay data set” (2004).
Values belong to the compound of their own block, whether it stands above or below them. The source made the active and inactive calls.

What was measured:
[1] = biological target: T1, Heat shock factor protein 1 (Mus musculus, UniProt P38532); assay: inhibition of MG132-induced HSE-luciferase signal, confirmation, cell-based, NIH3T3, luminescence, dose retest (AID 2382); format: functional;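 also: NIH3T3 fibroblasts with HSF1-driven luciferase reporter stressed by proteasome inhibitor MG132; luminescence from HSF1-driven luciferase expression after 8 hours of MG132 stress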
T1 sequence (P38532 whole entry): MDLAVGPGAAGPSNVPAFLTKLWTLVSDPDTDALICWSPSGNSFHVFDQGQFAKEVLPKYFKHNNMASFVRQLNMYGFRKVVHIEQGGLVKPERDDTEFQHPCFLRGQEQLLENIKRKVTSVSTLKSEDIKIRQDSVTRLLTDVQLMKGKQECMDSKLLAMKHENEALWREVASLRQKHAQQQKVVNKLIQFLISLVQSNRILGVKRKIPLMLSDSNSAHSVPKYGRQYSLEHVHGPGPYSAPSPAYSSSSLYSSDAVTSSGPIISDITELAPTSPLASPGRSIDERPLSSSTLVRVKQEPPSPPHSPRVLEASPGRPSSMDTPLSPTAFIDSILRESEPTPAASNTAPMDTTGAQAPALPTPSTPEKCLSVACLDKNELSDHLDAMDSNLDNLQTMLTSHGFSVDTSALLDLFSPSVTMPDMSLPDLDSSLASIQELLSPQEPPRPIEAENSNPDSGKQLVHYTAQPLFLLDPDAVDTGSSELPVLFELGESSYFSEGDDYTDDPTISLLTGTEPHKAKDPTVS

[2] = biological target: Peroxisome proliferator-activated receptor gamma/Nuclear receptor coactivator 3 (Homo sapiens, UniProt P37231); assay: TR-FRET dose response biochemical High Throughput Screening assay for agonists of the steroid receptor coactivator 3 (SRC-3) recruitment by the peroxisome proliferator-activated receptor gamma (PPAR gamma): non-selective agonists. [Related pubchem assays: 1301 (Confirmation screen.), 1048 (Primary screen.)]; format: functional
[3] = biological target: Peroxisome proliferator-activated receptor gamma/Nuclear receptor coactivator 2 (Homo sapiens, UniProt P37231); assay: (§1) TR-FRET dose response biochemical High Throughput Screening assay for agonists of the steroid receptor coactivator 2 (SRC-2) recruitment by the peroxisome proliferator-activated receptor gamma (PPAR gamma): non-selective agonists. [Related pubchem assays: 1297, 1032 ]; format: functional
[4] = biological target: Peroxisome proliferator-activated receptor gamma/Nuclear receptor coactivator 1 (Homo sapiens, UniProt P37231); assay: as §1, with “1 (SRC-1)” for “2 (SRC-2)”, “assays (depositor defined):AID1300, AID1808, AID504735, AID631]” for “assays: 1297, 1032 ]”; format: protein assay
[5] = biological target: Luciferin 4-monooxygenase (Photinus pyralis, UniProt P08659); assay: Counter Screen for Luciferase-based Assay Positives. [Related pubchem assays: 620, 618, 411 ]
[6] = system: HT-1080; assay: cytotoxicity in HT1080 fibrosarcoma cells, cell-based, fluorescence readout (AID 620); format: functional; details: Homo sapiens
[7] = biological target: T2, Bcl-2-like protein 10 (Homo sapiens, UniProt Q9HD36); assay: displacers of TR3 peptide from Bcl-B, primary screen, selectivity assay for Bfl-1 inhibitor project, biochemical, fluorescence polarization, FITC-TR3 peptide (AID 748);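 also: fluorescence polarization from a fluorescein-labelled TR3 peptide binding purified Bcl-B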
T2 sequence (Q9HD36 whole entry): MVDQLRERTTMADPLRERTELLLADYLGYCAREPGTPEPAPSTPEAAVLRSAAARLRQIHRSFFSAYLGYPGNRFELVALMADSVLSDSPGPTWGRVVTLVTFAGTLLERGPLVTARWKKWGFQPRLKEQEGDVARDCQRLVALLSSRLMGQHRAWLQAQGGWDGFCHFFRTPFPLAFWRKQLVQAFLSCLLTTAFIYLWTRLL

[8] = biological target: T3, Estrogen receptor beta (Homo sapiens, UniProt Q92731);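 also: recombinant ER-beta bound to coactivator SRC1 peptide in presence of estradiol agonist; inhibitors block coactivator peptide binding and lower the FRET signal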
[9] = biological target: T3, Estrogen receptor beta; assay: ERβ–SRC-3 coactivator interaction inhibitors, confirmation, orthogonal assay, biochemical, ELISA, streptavidin-HRP readout (AID 1060)
[10] = biological target: T4, Estrogen receptor (Homo sapiens, UniProt P03372);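 also: potency for inhibiting coactivator peptide recruitment to the receptor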
T4 sequence (P03372 whole entry): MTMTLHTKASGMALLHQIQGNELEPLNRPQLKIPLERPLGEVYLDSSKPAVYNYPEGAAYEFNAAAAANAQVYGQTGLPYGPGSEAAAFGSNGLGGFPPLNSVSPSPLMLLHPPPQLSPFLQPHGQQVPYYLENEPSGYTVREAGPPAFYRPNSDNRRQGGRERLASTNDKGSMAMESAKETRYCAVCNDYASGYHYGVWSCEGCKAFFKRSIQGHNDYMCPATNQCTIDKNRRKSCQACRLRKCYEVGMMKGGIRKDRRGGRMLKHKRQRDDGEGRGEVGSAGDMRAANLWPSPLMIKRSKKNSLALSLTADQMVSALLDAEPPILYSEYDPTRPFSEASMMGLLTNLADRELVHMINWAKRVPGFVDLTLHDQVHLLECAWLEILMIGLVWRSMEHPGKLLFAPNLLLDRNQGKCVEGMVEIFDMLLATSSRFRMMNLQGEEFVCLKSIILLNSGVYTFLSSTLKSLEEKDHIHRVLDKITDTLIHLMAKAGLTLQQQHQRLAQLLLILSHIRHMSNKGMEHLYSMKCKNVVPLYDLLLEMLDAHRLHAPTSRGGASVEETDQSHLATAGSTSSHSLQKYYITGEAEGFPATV

[11] = CRF-BP/CRF-R2 complex antagonists, dose response, cell-based, uHTS hits, 384-well (AID 651639); format: functional, Homo sapiens; details: read-out: IC50_Mean
[12] = biological target: T5, Corticotropin-releasing factor receptor 2/Corticotropin-releasing factor-binding protein (Homo sapiens, UniProt P24387+Q13324); assay: activators of CRF receptor 2 with binding protein – uHTS hits, confirmation (AID 602473); format: functional; details: read-out: EC50_Mean
T5 sequence (Q13324 whole entry): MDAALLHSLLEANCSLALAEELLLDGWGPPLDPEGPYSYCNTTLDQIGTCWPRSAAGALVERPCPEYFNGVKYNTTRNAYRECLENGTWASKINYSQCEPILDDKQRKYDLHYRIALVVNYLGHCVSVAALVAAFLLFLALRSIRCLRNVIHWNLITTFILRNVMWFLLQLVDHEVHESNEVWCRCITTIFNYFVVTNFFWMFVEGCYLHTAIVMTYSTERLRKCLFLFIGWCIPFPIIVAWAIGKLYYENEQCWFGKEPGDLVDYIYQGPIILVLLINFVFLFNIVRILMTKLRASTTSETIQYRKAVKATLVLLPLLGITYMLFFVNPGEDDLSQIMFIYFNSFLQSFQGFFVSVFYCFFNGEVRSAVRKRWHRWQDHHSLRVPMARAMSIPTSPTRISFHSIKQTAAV
T5 sequence (P24387 whole entry): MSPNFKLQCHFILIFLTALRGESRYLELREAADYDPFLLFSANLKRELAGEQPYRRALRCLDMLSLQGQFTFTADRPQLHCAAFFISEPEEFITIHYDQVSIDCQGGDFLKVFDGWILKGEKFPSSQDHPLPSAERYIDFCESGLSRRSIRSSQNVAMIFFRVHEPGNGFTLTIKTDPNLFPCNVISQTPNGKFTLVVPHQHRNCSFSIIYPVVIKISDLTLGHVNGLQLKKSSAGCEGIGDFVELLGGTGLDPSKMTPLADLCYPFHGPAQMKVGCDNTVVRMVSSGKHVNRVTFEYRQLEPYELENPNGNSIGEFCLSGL

[13] = biological target: T5, Corticotropin-releasing factor receptor 2/Corticotropin-releasing factor-binding protein; assay: Dose Response confirmation of uHTS hits for small molecule antagonists of the CRF-binding protein and CRF-R2 receptor complex.; format: functional; details: read-out: IC50_Mean
[14] = system: Escherichia coli; assay: microbe, parasite or virus in culture
[15] = cytotoxicity in MIN6 insulinoma cells, dose response, cytotoxicity control, cell-based, mouse insulinoma (AID 2122); format: functional;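 also: confirmatory high-throughput counterscreen run to flag cytotoxic compounds; mouse MIN-6 beta cells carrying an insulin promoter eGFP reporter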
[16] = biological target: T6, Bcl-2-related protein A1 (Mus musculus, UniProt Q07440); format: functional;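 also: confirmatory dose–response counterscreen on Bfl-1, used to check hits from a UBC13 polyubiquitin inhibitor campaign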
T6 sequence (Q07440 whole entry): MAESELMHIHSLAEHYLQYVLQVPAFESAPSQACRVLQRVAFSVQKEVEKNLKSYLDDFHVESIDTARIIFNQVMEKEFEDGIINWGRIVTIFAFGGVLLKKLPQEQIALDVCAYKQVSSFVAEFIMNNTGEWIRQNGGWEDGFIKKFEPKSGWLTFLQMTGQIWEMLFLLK

[17] = biological target: T7, Apoptotic protease-activating factor 1 (Homo sapiens, UniProt O14727); format: functional
T7 sequence (O14727 whole entry): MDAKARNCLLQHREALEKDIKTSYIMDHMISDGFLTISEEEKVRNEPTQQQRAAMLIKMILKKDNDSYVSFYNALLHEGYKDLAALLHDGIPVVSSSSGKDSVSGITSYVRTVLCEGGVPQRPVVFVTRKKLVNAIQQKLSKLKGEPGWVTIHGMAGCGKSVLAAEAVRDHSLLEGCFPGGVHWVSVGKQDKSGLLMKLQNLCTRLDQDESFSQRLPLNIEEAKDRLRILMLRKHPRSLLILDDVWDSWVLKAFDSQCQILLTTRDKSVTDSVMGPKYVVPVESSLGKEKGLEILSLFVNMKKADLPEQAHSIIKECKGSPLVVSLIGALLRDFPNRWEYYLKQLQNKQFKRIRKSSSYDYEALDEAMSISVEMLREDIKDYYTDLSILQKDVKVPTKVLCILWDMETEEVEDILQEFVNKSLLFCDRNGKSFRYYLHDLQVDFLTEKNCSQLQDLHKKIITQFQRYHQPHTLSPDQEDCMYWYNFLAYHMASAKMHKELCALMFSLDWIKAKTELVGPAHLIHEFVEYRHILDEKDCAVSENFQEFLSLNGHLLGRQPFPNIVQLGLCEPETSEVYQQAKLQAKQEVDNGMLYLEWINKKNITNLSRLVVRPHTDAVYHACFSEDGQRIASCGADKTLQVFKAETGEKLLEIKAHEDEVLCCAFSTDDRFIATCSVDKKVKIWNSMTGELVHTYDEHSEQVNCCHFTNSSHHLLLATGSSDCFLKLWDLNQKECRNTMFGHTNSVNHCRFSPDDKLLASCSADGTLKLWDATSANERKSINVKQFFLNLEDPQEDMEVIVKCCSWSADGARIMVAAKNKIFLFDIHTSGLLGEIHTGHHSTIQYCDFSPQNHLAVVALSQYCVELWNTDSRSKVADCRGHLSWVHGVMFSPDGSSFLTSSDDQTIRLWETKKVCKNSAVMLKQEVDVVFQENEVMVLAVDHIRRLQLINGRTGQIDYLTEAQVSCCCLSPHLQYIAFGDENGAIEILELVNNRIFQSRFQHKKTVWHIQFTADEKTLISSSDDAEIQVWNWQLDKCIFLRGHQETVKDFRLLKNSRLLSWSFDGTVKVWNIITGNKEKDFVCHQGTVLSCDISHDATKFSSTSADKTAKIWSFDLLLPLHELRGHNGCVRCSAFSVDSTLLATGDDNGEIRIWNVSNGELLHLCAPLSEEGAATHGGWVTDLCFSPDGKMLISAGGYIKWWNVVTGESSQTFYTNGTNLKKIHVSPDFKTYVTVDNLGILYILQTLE

[18] = biological target: Neurotensin receptor type 1 (Homo sapiens, UniProt P30989); format: functional;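 also: Image-based confirmatory dose-response assay measuring agonist activity at NTR1; NTR1-expressing U2OS osteosarcoma cells imaged for beta-arrestin GFP spot formation; agonist potency where compounds increase beta-arrestin recruitment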
[19] = biological target: T8, Ubiquitin-conjugating enzyme E2 N (Homo sapiens, UniProt P61088); format: functional
T8 sequence (P61088 whole entry): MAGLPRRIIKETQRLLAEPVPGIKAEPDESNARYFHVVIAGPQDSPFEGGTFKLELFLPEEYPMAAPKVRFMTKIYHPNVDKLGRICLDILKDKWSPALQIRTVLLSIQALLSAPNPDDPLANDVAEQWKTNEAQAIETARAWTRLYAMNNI

[20] = inhibitors of intracellular T. cruzi replication, confirmation, NIH3T3 host cells, beta-gal luminescence (AID 2044); format: functional, cell-based;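 also: intracellular parasites grown in NIH/3T3 mouse fibroblasts as host cells; luminescent beta-galactosidase reporter signal from transgenic T. cruzi replicating inside host cells; inhibitors lower the luminescence signal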
[21] = cytotoxicity toward NIH3T3 fibroblasts, dose response, counter-screen, cell-based, ATP luminescence, mouse fibroblasts (AID 2010); format: functional;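 also: cells exposed to compound for about 90 hours before reading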
[22] = insulin promoter down-regulators in MIN6 cells, imaging, high-content screening, mouse beta cells (AID 1628); format: functional
[23] = biological target: T1, Heat shock factor protein 1; assay: HSF1 potentiators in luciferase reporter cells, confirmation, cell-based, NIH3T3, luminescence, dose retest (AID 435004); format: functional;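 also: stress induced by proteasome inhibitor MG132 added 30 min after compound; luciferase reporter driven by HSF1 response element in NIH3T3 cells; actives raise luminescence as potentiators of the MG132 stress response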
[24] = Luminescence Cell-Based Dose Retest to Confirm Inhibitors of Cancer Stem Cells. [Related pubchem assays (depositor defined):AID2717, AID2721]; format: functional; details: Homo sapiens
[25] = biological target: T8, Ubiquitin-conjugating enzyme E2 N; format: functional; remark: listed apart in the source

Sequence of Peroxisome proliferator-activated receptor gamma/Nuclear receptor coactivator 3 (P37231 whole entry): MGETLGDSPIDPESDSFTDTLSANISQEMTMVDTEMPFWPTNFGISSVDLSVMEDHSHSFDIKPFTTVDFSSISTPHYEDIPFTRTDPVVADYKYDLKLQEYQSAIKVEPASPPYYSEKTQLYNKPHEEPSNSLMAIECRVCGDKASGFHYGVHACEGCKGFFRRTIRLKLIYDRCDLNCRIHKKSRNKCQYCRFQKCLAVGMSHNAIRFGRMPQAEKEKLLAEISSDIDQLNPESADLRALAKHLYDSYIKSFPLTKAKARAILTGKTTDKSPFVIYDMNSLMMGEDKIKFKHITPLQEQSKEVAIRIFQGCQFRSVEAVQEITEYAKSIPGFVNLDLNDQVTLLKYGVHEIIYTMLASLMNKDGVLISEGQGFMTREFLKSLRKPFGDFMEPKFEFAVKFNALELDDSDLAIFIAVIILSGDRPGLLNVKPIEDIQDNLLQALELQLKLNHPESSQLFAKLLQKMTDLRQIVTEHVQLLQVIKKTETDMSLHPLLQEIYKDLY
Sequence of Peroxisome proliferator-activated receptor gamma/Nuclear receptor coactivator 3 (Q9Y6Q9 whole entry, further chain): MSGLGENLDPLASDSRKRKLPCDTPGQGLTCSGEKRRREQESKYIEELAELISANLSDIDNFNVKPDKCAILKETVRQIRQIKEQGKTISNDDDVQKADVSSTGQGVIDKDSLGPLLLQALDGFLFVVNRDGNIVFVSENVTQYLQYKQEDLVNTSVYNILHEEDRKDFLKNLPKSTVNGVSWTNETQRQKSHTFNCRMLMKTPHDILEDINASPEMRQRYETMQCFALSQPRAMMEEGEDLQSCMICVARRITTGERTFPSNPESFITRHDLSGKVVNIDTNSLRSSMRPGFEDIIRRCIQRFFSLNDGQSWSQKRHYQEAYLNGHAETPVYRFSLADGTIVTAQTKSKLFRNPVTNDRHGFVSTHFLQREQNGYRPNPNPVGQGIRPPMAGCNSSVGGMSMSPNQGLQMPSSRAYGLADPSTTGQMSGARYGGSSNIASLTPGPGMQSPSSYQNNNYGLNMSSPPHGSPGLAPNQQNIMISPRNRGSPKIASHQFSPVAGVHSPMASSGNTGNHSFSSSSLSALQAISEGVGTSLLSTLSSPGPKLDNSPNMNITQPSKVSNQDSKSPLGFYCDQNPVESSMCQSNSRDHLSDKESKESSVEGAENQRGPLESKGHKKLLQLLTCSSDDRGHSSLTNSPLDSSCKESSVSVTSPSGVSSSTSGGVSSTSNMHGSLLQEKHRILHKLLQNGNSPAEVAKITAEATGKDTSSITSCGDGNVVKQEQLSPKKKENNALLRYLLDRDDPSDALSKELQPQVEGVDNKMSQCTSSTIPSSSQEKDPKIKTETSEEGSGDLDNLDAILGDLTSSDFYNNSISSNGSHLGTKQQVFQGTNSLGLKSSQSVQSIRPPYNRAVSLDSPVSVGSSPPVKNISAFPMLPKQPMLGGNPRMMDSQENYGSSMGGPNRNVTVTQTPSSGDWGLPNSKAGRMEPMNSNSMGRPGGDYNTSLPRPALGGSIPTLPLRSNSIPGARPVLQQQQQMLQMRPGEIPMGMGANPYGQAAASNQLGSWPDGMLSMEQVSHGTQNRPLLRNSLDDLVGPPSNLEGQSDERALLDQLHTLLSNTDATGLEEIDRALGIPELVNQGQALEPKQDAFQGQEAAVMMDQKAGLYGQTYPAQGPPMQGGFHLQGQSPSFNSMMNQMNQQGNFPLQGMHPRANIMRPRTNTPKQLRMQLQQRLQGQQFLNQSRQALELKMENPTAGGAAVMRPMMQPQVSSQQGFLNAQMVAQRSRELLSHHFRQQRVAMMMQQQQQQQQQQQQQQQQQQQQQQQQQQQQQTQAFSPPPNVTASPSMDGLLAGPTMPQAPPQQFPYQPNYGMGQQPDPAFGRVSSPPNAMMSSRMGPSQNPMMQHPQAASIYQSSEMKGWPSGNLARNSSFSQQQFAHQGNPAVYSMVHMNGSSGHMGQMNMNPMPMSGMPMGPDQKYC
Sequence of Peroxisome proliferator-activated receptor gamma/Nuclear receptor coactivator 2 (P37231 whole entry): as the sequence (P37231 whole entry) above
Sequence of Peroxisome proliferator-activated receptor gamma/Nuclear receptor coactivator 2 (Q15596 whole entry, further chain): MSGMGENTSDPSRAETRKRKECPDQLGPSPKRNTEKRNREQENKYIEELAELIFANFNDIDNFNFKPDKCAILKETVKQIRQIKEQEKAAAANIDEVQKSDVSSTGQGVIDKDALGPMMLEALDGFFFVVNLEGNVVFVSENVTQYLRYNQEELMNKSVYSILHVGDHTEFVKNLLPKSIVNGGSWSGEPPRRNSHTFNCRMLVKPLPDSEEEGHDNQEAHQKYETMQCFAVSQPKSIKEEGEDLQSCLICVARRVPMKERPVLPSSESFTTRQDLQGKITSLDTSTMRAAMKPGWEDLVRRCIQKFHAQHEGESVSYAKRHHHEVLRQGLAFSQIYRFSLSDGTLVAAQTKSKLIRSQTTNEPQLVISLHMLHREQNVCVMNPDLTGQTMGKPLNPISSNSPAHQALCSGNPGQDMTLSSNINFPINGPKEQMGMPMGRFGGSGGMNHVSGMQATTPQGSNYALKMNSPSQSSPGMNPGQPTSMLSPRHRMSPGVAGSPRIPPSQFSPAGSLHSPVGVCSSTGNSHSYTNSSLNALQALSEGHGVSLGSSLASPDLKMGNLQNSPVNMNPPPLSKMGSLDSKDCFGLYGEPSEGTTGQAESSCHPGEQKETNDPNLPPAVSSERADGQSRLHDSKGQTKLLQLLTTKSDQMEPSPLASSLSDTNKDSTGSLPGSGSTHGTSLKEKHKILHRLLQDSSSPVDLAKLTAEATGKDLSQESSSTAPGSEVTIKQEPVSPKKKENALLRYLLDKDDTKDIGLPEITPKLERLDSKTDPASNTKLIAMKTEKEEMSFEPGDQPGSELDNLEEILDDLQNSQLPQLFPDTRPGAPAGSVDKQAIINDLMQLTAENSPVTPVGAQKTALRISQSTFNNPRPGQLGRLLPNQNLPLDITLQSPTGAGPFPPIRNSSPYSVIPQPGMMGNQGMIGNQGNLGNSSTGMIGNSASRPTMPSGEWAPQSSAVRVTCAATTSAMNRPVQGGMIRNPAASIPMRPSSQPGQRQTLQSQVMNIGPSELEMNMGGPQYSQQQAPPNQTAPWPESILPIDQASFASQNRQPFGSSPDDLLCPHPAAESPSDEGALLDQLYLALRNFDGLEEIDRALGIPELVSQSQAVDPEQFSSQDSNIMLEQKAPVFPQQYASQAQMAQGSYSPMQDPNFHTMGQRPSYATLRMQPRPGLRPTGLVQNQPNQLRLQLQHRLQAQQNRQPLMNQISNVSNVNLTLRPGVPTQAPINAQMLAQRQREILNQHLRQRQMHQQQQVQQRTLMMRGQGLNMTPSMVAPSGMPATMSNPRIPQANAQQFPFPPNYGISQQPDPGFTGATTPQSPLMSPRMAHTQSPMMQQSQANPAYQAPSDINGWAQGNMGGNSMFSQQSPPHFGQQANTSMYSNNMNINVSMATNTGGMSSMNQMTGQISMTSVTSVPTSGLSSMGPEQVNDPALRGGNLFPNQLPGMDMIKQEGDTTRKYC
T3 sequence (Q92731 whole entry): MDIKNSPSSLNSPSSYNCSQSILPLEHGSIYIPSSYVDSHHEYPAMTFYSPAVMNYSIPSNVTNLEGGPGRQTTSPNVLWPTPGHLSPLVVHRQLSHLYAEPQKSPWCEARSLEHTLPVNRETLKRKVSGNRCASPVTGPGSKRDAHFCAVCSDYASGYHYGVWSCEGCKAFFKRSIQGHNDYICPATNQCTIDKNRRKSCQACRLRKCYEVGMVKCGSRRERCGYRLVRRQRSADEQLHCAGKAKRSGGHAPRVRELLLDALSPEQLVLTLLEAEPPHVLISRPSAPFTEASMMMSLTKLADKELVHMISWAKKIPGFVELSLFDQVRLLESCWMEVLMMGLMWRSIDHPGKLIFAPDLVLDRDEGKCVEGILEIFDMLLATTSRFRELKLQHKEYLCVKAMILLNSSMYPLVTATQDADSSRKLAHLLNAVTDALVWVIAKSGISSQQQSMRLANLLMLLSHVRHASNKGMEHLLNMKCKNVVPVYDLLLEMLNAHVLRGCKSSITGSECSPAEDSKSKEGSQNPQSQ
Sequence of Neurotensin receptor type 1 (P30989 whole entry): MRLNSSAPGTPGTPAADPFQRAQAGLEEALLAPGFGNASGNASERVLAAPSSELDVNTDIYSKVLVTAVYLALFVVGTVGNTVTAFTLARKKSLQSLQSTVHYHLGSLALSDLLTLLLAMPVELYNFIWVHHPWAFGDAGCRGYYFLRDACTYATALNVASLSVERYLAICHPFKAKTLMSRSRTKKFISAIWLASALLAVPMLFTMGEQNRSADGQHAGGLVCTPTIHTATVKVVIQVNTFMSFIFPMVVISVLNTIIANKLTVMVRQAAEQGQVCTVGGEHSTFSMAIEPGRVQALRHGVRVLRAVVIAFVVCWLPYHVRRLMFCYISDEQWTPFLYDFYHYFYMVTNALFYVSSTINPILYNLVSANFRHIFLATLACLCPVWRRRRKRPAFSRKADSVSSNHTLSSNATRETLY

EC50 [1]: > 195 µM (not active)
EC50 [2]: 20.2 µM (not active)
EC50 [3]: 7.93 µM (active)
EC50 [4]: 4.86 µM (active)
Structure (SMILES): Cn1c(S)nnc1-c1sc2cc(C(F)(F)F)cnc2c1-c1cccnc1

EC50 [2]: > 79.4 µM (not active)
EC50 [3]: 30.2 µM (not active)
EC50 [4]: 31.8 µM (inactive)
Structure (SMILES): COc1ccc(C2CC(c3ccc(Br)cc3)=NN2C(S)=Nc2ccccc2)cc1 (stereo not drawn)

Structure (SMILES): CCc1ccc(NC(=O)c2noc3c2CCC3)cc1
EC50 [5]: 1.4 µM (active)
EC50 [6]: > 50 µM (not active)
IC50 [7]: 21.7 µM (active)
IC50 [8]: 5.5 µM (active)
IC50 [9]: < 0.023 µM (not active)
IC50 [10]: 7.94 µM (active)

IC50 [7]: 71 µM (inactive)
Structure (SMILES): C=CCn1c(SCC(=O)OC)nc2sc3c(c2c1=O)CCN(C)C3

EC50 [2]: > 79.4 µM (not active)
EC50 [3]: > 79.4 µM (not active)
EC50 [4]: > 79.4 µM (inactive)
Structure (SMILES): N#Cc1cc(C(=O)c2cc(Br)ccc2O)cn(Cc2ccccc2)c1=O

Structure (SMILES): O=C(NC(Cc1ccccc1)c1nc2ccccc2[nH]1)c1ccc(Cl)c([N+](=O)[O-])c1 (stereo not drawn)
IC50 [11]: 4.96 µM (active)
EC50 [12]: > 53 µM (inactive)
IC50 [13]: 11.6 µM (active)
AC50 [14]: 25 µM (active)

Structure (SMILES): COC(C(=O)Nc1ccnn1C1CCN(Cc2ccc(C)o2)CC1)c1ccccc1 (stereo not drawn)
AC50 [14]: 74.5 µM (active)

Structure (SMILES): CCCCCCOc1ccc(/C(C)=N/NC2=NCCN2)cc1[N+](=O)[O-]
IC50 [15]: 2.11 µM (active)
IC50 [16]: > 20 µM (inactive)
IC50 [17]: 70.5 µM (active)
EC50 [18]: 18.9 µM (active)
IC50 [19]: 12.6 µM (active)
EC50 [20]: 2.15 µM (active)
EC50 [21]: > 30 µM (not active)
IC50 [22]: 2.34 µM (active)
EC50 [23]: > 260 µM (inactive)
AC50 [24]: 4.9 µM (active)
IC50 [25]: 12.1 µM (active)
